Paper PMC10630888, “Nuclear ERK1/2 signaling potentiation enhances neuroprotection and cognition via Importinα1/KPNA2” (EMBO Molecular Medicine, 2023)
Where “and” joins values, the source holds several entries; their conditions need not be identical. Equal entries are not always repeated.

Legend:
pMSK-1 = assay: Striatal pMSK-1 immunohistochemistry 1 h after single injection; type: in vivo, mouse; settings: single injection 20 mg/kg i.p., individual mice
Description: (§1) Immunohistochemistry was performed as described in Papale et al ([2016]). Briefly, 1 h after blocking in 5% normal goat serum and 0.1% Triton X‐100 solution, free‐floating sections were incubated overnight at 4°C with one of the following primary antibodies: anti‐phospho‐p44/42 MAP kinase (Thr202/Tyr204) (1:200, Cell Signaling Technology #9101), anti‐phospho–Elk‐1 (Ser383) (1:100, Cell Signaling #9181), anti‐phospho‐Kv4.2 (Thr607)‐R (1:100, Santa Cruz sc22254‐R), anti‐phospho‐MSK‐1 (1:100 Cell Signaling Technology #9595), anti‐phospho‐MEK1/2 (Ser218/222) (1:100, sc‐7995 Santa Cruz Biotechnology), c‐Fos (1:100, sc‐52 Santa Cruz Biotechnology), tyrosine Hydroxylase (monoclonal 1:1,000, Sigma Aldrich, Italy) and anti‐DARPP‐32 (H3) (1:100, Santa Cruz Biotechnology, #sc‐271111) overnight at 4°C. […]
(§2) For in vivo immunohistochemistry experiments, images were acquired from the dorsal striatum using a Leica DM IRB microscope under a 20× objective. The number of p‐ERK, p‐MSK‐1, p‐ELK, p‐MEK‐1, p‐VG K+, c‐Fos, and DARPP‐32 positive cells was counted in 2–3 consecutive sections per mouse, bilaterally and averaged across the sections using the ImageJ software by a blind investigator to the condition. Estimation of nigral cell loss was assessed by quantifying the number of TH‐immunopositive neurons of the SNc in 360 μm‐spaced sections for each animal.

contextual fear memory [1] = assay: Contextual fear conditioning, rats, intra-hippocampal infusion; type: in vivo, rat; parameters: unit not given here; settings: 2 mg/ml, 1.0 μl/side into dorsal hippocampus 20 min prior to conditioning, individual rats
Description: Lister Hooded male rats (280–350 g) were housed in pairs, in holding rooms maintained at 21°C on a reversed‐light cycle (12 h light/dark; lights on at 10:00 P.M.). All experiments were conducted in the dark period of the rats. RB5 and Scramble peptides were infused into dorsal hippocampus.
Steel double guide cannulae aimed at the dorsal hippocampus (AP ‐3.50, relative to bregma) were surgical implanted under anesthesia at least 1 week prior to behavioral training and microinfusions. Bilateral infusions with either 2 mg/ml Scramble or RB5, 20 min prior to conditioning (pH 7.0, 1.0 μl/side, rate = […]) via the chronically indwelling cannula were carried out in awake rats using a syringe pump, connected to injectors (28 gauge, projecting 1 mm beyond the guide cannulae) by polyethylene tubing.
Conditioning was performed in one of two distinct contexts. These contexts were designed to differ in a number of distinctive characteristics including size, spatial location, odor, and lighting. During the 3 min conditioning training trial, rats received a single scrambled footshock (0.5 mA for 2 s) 2 min after being placed into one of the conditioning contexts. All rats were returned to the home cages after conditioning. Retrieval tests 3 h (postretrieval short‐term memory, STM), or 2 days (long‐term memory, LTM) after recall again consisted of exposing the rat to the conditioning context for 2 min not delivering a foot shock.
(§3) For all protocols, freezing behavior served as a measure of conditioned fear to the context during the conditioning and retrieval tests.

MEK-1 phosphorylation = assay: Striatal phospho-MEK-1 immunohistochemistry 1 h after single injection; type: in vivo, mouse; settings: single injection 20 mg/kg i.p., individual mice
Description: as §1, §2

c-Fos = assay: Striatal c-Fos immunohistochemistry 1 h after single injection; type: in vivo, mouse; settings: single injection 20 mg/kg i.p., individual mice
Description: as §1, §2

contextual fear memory [2] = assay: Contextual fear conditioning, Tg2576 and WT mice; type: in vivo, mouse; parameters: unit not given here; settings: 7 months, 20 mg/kg i.p. 1 h before CFC, test 24 h later, individual mice
Description: Tg2576 mice were administered with RB5 or Scramble (20 mg/kg i.p.) for either 7 days, for IHC analysis, or with a single injection (20 mg/kg i.p.), for behavioral analysis.
7‐month‐old Tg2576 mice and WT mice were treated with either Scramble or RB5 (20 mg/kg, i.p.) 1 h before CFC. Mice were individually placed in the conditioning chamber for 120 s of free exploration followed by five foot‐shocks (0.7 mA, 2‐s duration, separated by 60‐s intervals) delivered through the grid floor. Context Fear Memory was assessed 24 h later by returning mice for 5 min to the conditioning chamber and not delivering a foot shock.
as §3

pELK = assay: Striatal pELK immunohistochemistry 1 h after single injection; type: in vivo, mouse; settings: single injection 20 mg/kg i.p., individual mice
Description: as §1, §2

Substance | pMSK-1 positive cells in striatum (pMSK-1) | Freezing behavior (contextual fear memory [1]; LTM, 2 days) | Freezing behavior (contextual fear memory [1]; PostUS) | Freezing behavior (contextual fear memory [1]; PreUS) | Freezing behavior (contextual fear memory [1]; STM, 3 h) | p-MEK-1 positive cells in striatum (MEK-1 phosphorylation) | c-Fos positive cells in striatum (c-Fos) | Freezing behavior, contextual fear memory (contextual fear memory [2]; Tg2576 mice) | Freezing behavior, contextual fear memory (contextual fear memory [2]; WT mice) | pELK positive cells in striatum (pELK)
GRKKRRQRRRPPQGGGGGEPRRTEGVGPGVPGEVEMVKGQPFDV [RB5, six D-amino acids, acetylated N-terminus] | selectively activated and 947.619 and 433.333 and 542.857 and 395.238 and 690.476 and 838.095 and 642.857 and 1019.05 and 728.571 and 490.476 and 328.571 and 904.762 and 1233.33 and 671.429 | markedly enhanced and 33.3 and 58.3 and 83.3 and 50 | markedly enhanced and 83.3 and 66.7 | 0 | markedly enhanced and 58.3 and 75 and 91.7 and 50 and 66.7 | did not influence the phosphorylation and 335.714 and 385.714 and 421.429 and 400 and 314.286 and 271.429 and 307.143 and 464.286 and 371.429 and 428.571 and 392.857 and 285.714 and 500 | selectively activated and 771.429 and 809.524 and 757.143 and 976.19 and 723.81 and 795.238 and 914.286 and 857.143 and 814.286 and 852.381 and 738.095 and 761.905 and 961.905 and 728.571 | fully prevented the memory impairment and 56.33 and 63.67 and 67 and 57.33 and 84 and 76.33 and 95.67 and 82.67 | 93.33 and 94.33 and 78 and 88.33 and 70.33 and 78.33 and 85 | selectively activated and 980.952 and 828.571 and 933.333 and 1047.62 and 938.095 and 852.381 and 1080.95 and 1147.62 and 700 and 838.095 and 761.905 and 809.524 and 871.429 and 766.667
SCR: ineffective Scramble version of RB5 containing a TAT sequence (GRKKRRQRRRPPRVGPGVPEGVGVAVFGVKEPGQTGDVGPVGE) [reference compound] | 614.286 and 328.571 and 409.524 and 680.952 and 885.714 and 485.714 and 509.524 and 319.048 and 571.429 and 461.905 and 338.095 and 209.524 and 466.667 and 700 and 519.048 | 33.3 (3×) and 58.3 and 16.7 (2×) | 16.7 (2×) and 50 (2×) and 33.3 and 0 | 0 | 33.3 (2×) and 41.7 and 16.7 and 25 and 8.3 | 385.714 and 492.857 and 471.429 and 371.429 and 478.571 and 335.714 and 407.143 and 328.571 and 342.857 and 257.143 and 442.857 and 264.286 and 542.857 | 461.905 and 395.238 and 423.81 and 380.952 and 419.048 and 352.381 and 438.095 and 376.19 and 604.762 and 404.762 and 590.476 and 552.381 and 490.476 and 290.476 | 28.67 and 36 and 36.67 and 25.33 and 43.67 and 29.67 and 28 | 96.67 and 87.67 and 96.33 and 88.67 and 64 and 57.67 and 82.67 | 323.81 and 423.81 and 452.381 and 228.571 and 433.333 and 633.333 and 371.429 and 404.762 and 166.667 and 219.048 and 309.524 and 280.952 and 295.238 and 195.238 and 133.333
